Source: US8552013B2, “Heterocyclic compounds based on N6-substituted adenine, methods of their preparation, their use for preparation of drugs, cosmetic preparations and growth regulators, pharmaceutical preparations, cosmetic preparations and growth regulators containing these compounds” (USTAV Experimentalni Botaniky Akademie Ved Ceske Republiky, priority 2001, dated 2013)
Read-outs that look alike come from different tables or passages of the source.

Experiments:
[1] = test system: Triticum aestivum cv. Hereward leaf tips; test: Retention of chlorophyll in excised wheat leaf tips; assay type: in vivo; conditions: chlorophyll retention at the concentration with highest activity
Procedure: Seeds of winter wheat, Triticum aestivum cv. Hereward, were washed under running water for 24 hours and then sown on vermiculite soaked with Knop's solution. They were placed in the grown chamber at 25° C. with a 16/8 h light period at 50 μmol.m^−2.s^−1. After 7 days, the first leaf was fully developed and the second leaf had started to grow. A tip section of the first leaf, approximately 35 mm long, was removed from 5 seedlings and trimmed slightly to a combined weight of 100 mg. The basal ends of the five leaf tips were placed in the wells of a microtiter polystyrene plate containing 150 μl of a cytokinin solution each. The entire plate was inserted into a plastic box lined with paper tissues soaked in distilled water to prevent leaf sections from drying out. After a 96 h incubation in the dark at 25° C., the leaves were removed and chlorophyll extracted by heating at 80° C. for 10 min in 5 ml of 80% ethanol (v/v). The sample volume was then restored to 5 ml by the addition of 80% ethanol (v/v). The absorbency of the extract was recorded at 665 nm. In addition, chlorophyll extracts from fresh leaves and leaf tips incubated in deionised water were measured. From the obtained data, the concentration with highest activity was selected for each compound tested. Relative activity of the compound at this concentration was calculated (Tab. 6). The activity obtained for 10^−4 M 6-benzylaminopurine (BAP) was postulated as 100%. The values shown are means of five replicates and the whole experiment was repeated twice. The cytokinins to be tested were dissolved in dimethylsulfoxide (DMSO) and the solution brought up to 10^−3M with distilled water. This stock was further diluted in distilled water to concentrations ranging from 10^−8M to 10^−4M.

[2] = test system: breast carcinoma cell line MCF-7; test: Calcein AM cytotoxicity, MCF7; assay type: cell-based, human; conditions: Homo sapiens, read-out: IC 50, MCF7
Excerpt: (§1) One of the parameters used, as the basis for cytotoxicity assays, is the metabolic activity of viable cells. For example, a microtiter assay, which uses the Calcein AM, is now widely used to quantitate cell proliferation and cytotoxicity. For instance, this assay is used in drug screening programs and in chemosensitivity testing. Because only metabolically active cells cleave Calcein AM, these assays detect viable cells exclusively. The quantity of reduced Calcein AM corresponds to the number of vital cells in the culture.
(§2) The cells were maintained in Nunc/Corning 80 cm^2 plastic tissue culture flasks and cultured in cell culture medium (DMEM with 5 g/l glucose, 2 mM glutamine, 100 U/ml penicillin, 100 μg/ml streptomycin, 10% fetal calf serum and sodium bicarbonate).
(§3) The cell suspensions that were prepared and diluted according to the particular cell type and the expected target cell density (2.500-30.000 cells per well based on cell growth characteristics) were added by pipette (80 μl) into 96/well microtiter plates. Inoculates were allowed a pre-incubation period of 24 hours at 37° C. and 5% CO2 for stabilisation. Four-fold dilutions of the intended test concentration were added at time zero in 20 μl aliquots to the microtiter plate wells. Usually, test compound was evaluated at six 4-fold dilutions. […] All drug concentrations were examined in duplicates. Incubations of cells with the test compounds lasted for 72 hours at 37° C., in 5% CO2 atmosphere and 100% humidity. At the end of incubation period, the cells were assayed by using the Calcein AM. Ten microliters of the stock solution were pipetted into each well and incubated further for 1 hours. Fluorescence (FD) was measured with the Labsystem FIA Reader Fluoroscan Ascent (UK).

[3] = test system: tobacco callus Nicotiana tabacum L. cv. Wisconsin 38; test: Cytokinin-dependent tobacco callus growth; assay type: cell-based; conditions: fresh callus weight at the concentration with highest activity
Procedure: Cytokinin-dependent tobacco callus Nicotiana tabacum L. cv. Wisconsin 38 was maintained at 25° C. in darkness on modified Murashige-Skoog medium, containing per 1 liter: 4 μmol nicotinic acid, 2.4 μmol pyridoxine hydrochloride, 1.2 μmol thiamine, 26.6 μmol glycine, 1.37 μmol glutamine, 1.8 μmol myo-inositol, 30 g of sucrose, 8 g of agar, 5.37 μmol α-naphtylacetic acid (NAA) and 0.5 μmol benzylaminopurine (BAP). Subcultivation was carried out every three weeks. Fourteen days before the bioassay, the callus tissue was transferred to the media without 6-benzylaminopurine (BAP). Biological activity was determined from the increase in fresh callus weight after four weeks of cultivation. Five replicates were prepared for each cytokinin concentration and the entire test was repeated twice. From the obtained data, the concentration with highest activity was selected for each compound tested. Relative activity of the compound at this concentration was calculated (Tab. 6). The activity obtained for 10^−4 M 6-benzylaminopurine (BAP) was postulated as 100%. The cytokinins to be tested were dissolved in dimethylsulfoxide (DMSO) and the solution brought up to 10^−3M with distilled water. This stock was further diluted in the respective media used for the biotest to concentrations ranging from 10^−8M to 10^−4M.

[4] = test system: promyelocytic HL-60 leukemia; test: Calcein AM cytotoxicity, HL60; assay type: cell-based, human; conditions: Homo sapiens, read-out: IC 50, HL60
Excerpt: as §1, §2, §3

[5] = test system: K-562; test: Calcein AM cytotoxicity, K-562; assay type: cell-based; conditions: Homo sapiens, K562, 72 h, read-out: IC 50, K-562
Excerpt: as §1, §2, §3

[6] = test system: Amaranthus caudatus cotyledon/hypocotyl explants; test: Amaranthus bioassay, betacyanin content; assay type: in vivo; conditions: betacyanin content at the concentration with highest activity
Procedure: Standard Amaranthus bioassay was performed with several modifications. The seeds of Amaranthus caudatus var. atropurpurea were surface-sterilised in 10% N-chlorobenzenesulfonamide (w/v) for 10 min and washed 5 times in deionized water. They were placed in 14 cm Petri dishes containing paper tissues saturated with deionized water. After 72 h of cultivation at 25° C. in darkness, the roots of the seedlings were cut off. The explants, consisting of two cotyledons and hypocotyls, were placed in 5 cm Petri dishes on two layers of filter paper soaked in 1 ml of incubation medium containing 10 μmol NA2HPO4-KH2PO4, pH 6.8, 5 μmol tyrosine and the cytokinin to be tested. There were 20 explants per dish. The procedure was carried out under a green safe light in a darkroom. After a 48 h of incubation at 25° C. in darkness, betacyanin was extracted by freezing the explants in 4 ml […] acetic acid. The concentration of betacyanin was determined by comparing the absorbance at 537 nm and 620 nm as follows: ΔA=[…] nm-A620 nm. From the obtained data, the concentration with highest activity was selected for each compound tested. Relative activity of the compound at this concentration was calculated (Tab. 6). […] The values shown in table 8 are means of five replicates and the entire test was repeated twice. The cytokinins to be tested were dissolved in dimethylsulfoxide (DMSO) and the solution brought up to 10^-3M with distilled water. This stock was further diluted in the respective media used for the biotest to concentrations ranging from 10^-8M to 10^-4M.

[7] = test system: T-lymphoblastic leukemia cell line CEM; test: Calcein AM cytotoxicity, CEM; assay type: cell-based, human
Excerpt: as §1, §2, §3

Row | SMILES | Activity (%) [10^−4 mol · l^−1 BAP = 100%] [1] | IC50 ([2]; MCF7, 72 h) [µM] | Activity (%) [10^−4 mol · l^−1 BAP = 100%] [3] | IC50 ([4]; HL-60, 72 h) [µM] | IC50 [5] [µM] | activity (%) [10^−5 mol · l^−1 BAP = 100%] [6] | IC50 ([7]; Homo sapiens, 72 h) [µM] | IC50 ([2]; MCF7, 72 hours) [µM] | IC50 ([4]; HL-60, 72 hours) [µM] | IC50 ([7]; Homo sapiens, 72 hours) [µM] | IC50 ([7]; 72 hours, listed as 2,4diFBAP) [µM]
1 | Fc1ccc(CNc2ncnc3nc[nH]c23)c(F)c1F [6-(2,3,4-trifluorobenzylamino)purine] | 131 (±22) % | > 167 | 76 (±4) % | > 167 | > 167 | 94 (±3) % |  |  |  |  | 
2 | Nc1ncnc2nc[nH]c12 [Adenine] |  | > 167 |  | > 167 | > 167 |  | > 167 |  |  |  | 
3 | Fc1cc(F)cc(CNc2ncnc3nc[nH]c23)c1 [6-(3,5-difluorobenzylamino)purine] | 156 (±4) % |  | 97 (±3) % |  |  | 108 (±2) % |  |  |  |  | 
4 | Brc1cccc(CNc2ncnc3nc[nH]c23)c1 [6-(3-bromobenzylamino)purine] | 48 (±6) % |  | 85 (±11) % |  |  | 71 (±5) % |  |  |  |  | 
5 | C/C(=C\CNc1ncnc2[nH]cnc12)CO [Zeatin, reference compound] |  |  |  |  |  |  |  | > 167 | > 167 | > 167 | 
6 | O=[N+]([O-])c1cccc(CNc2ncnc3nc[nH]c23)c1 [6-(3-nitrobenzylamino)purine] | 60 (±15) % | > 167 |  | > 167 | > 167 | 66 (±7) % | > 167 |  |  |  | 
7 | COc1cc(CNc2ncnc3nc[nH]c23)cc(OC)c1OC [6-(3,4,5-trimethoxybenzylamino)purine] | 25 (±2) % |  | 19 (±3) % |  |  | 2 (±2) % |  |  |  |  | 
8 | Fc1ccc(CNc2ncnc3nc[nH]c23)c(F)c1 [6-(2,4-difluorobenzylamino)purine] | 139 (±2) % | > 167 | 95 (±1) % | > 167 | > 167 | 88 (±7) % | 140 |  |  |  | 146
9 | COc1cc(CNc2ncnc3nc[nH]c23)cc(OC)c1 [6-(3,5-dimethoxybenzylamino)purine] | 16 (±1) % | > 167 |  | > 167 | > 167 | 1.5 (±1) % | > 167 |  |  |  | 
10 | COc1cccc(CNc2ncnc3nc[nH]c23)c1OC [6-(2,3-dimethoxybenzylamino)purine] | 109 (±5) % |  | 8.5 (±2) % |  |  | 22 (±3) % |  |  |  |  | 
11 | Clc1ccc(CNc2ncnc3nc[nH]c23)cc1Cl [6-(3,4-dichlorobenzylamino)purine] | 117 (±22) % |  | 45 (±7) % |  |  | 63 (±10) % |  |  |  |  | 
12 | COc1ccc(CNc2ncnc3nc[nH]c23)c(OC)c1 [6-(2,4-dimethoxybenzylamino)purine] | 26 (±11) % |  | 21 (±5) % |  |  | 12 (±2) % |  |  |  |  | 
13 | Brc1ccc(CNc2ncnc3nc[nH]c23)cc1 [6-(4-bromobenzylamino)purine] | 30 (±15) % |  | 15 (±9) % |  |  | 17 (±7) % |  |  |  |  | 
